Experimental data: patent US7662810B2, “2-arylmethylazetidine carbapenem derivatives and preparation thereof” (Korea Research Institute of Chemical Technology, priority 2004, dated 2010)

Experiments:
[1] = test system: Staphylococcus pyogenes 77A; assay: Measurement of Minimum Inhibitory Concentration (MIC); format: cell-based; details: Staphylococcus pyogenes 77A
Description: (§1) The antibacterial activities of the compounds of the present invention prepared in the above Examples against Gram-positive and Gram-negative bacteria, MRSA and QRS were tested as follows.
(§2) Respective bacterial strains were inoculated into 3 ml of Fleisch extract broth (beef extract 1%, peptone 1%, NaCl 0.3%, Na2HPO4.12H2O 0.2%, pH 7.4-7.5. 10% horse serum was supplemented for Streptococcus pyogenes and S. facium) and cultured on a shaking incubator at 37° C. for 18 hours. About 10^4 CFU/spot of the cultured bacterial strains were inoculated onto Müller-Hinton agar plates containing serial double dilutions (final concentration of 0.002 to 100 μg/ml) of a test compound employing an automatic inoculator (Dynatech, USA), and incubated at 37° C. for 18 hours. When the incubation was completed, the minimum inhibitory concentration was determined. Meropenem (Yuhan corporation, Korea) and vancomycin (Cj Inco., Korea) were used as standard antibiotics, respectively.

[2] = test system: Enterobacter cloacae 1321 E; assay: as above; format: cell-based
Description: as §1, §2

[3] = test system: Escherichia coli TEM; assay: as above; format: cell-based; details: Escherichia coli TEM
Description: as §1, §2

[4] = test system: Escherichia coli 078; assay: as above; format: cell-based
Description: as §1, §2

[5] = test system: Klebsiella oxytoca 1082 E; assay: as above; format: cell-based
Description: as §1, §2

[6] = test system: Staphylococcus aureus 503; assay: as above; format: cell-based
Description: as §1, §2

[7] = test system: Salmonella typhimurium 179; assay: as above; format: cell-based; details: Salmonella typhimurium 179
Description: as §1, §2

[8] = test system: Enterobacter cloacae P 99; assay: as above; format: cell-based
Description: as §1, §2

[9] = test system: Staphylococcus pyogenes 308A; assay: as above; format: cell-based; details: Staphylococcus pyogenes 308A
Description: as §1, §2

[10] = test system: Staphylococcus faecium MD 8b; assay: as above; format: cell-based; details: Staphylococcus faecium MD 8b
Description: as §1, §2

[11] = test system: Escherichia coli 1507 E; assay: as above; format: cell-based
Description: as §1, §2

[12] = test system: Escherichia coli DC 2; assay: as above; format: cell-based
Description: as §1, §2

[13] = test system: Klebsiella aerogenes 1522 E; assay: as above; format: cell-based
Description: as §1, §2

[14] = test system: Escherichia coli DC 0; assay: as above; format: cell-based
Description: as §1, §2

[15] = test system: Staphylococcus aureus 285; assay: as above; format: cell-based
Description: as §1, §2

[16] = test system: Staphylococcus aureus 179; assay: Measurement of Minimum Inhibitory Concentration (MIC), QRS; format: cell-based; details: QRS, Staphylococcus aureus 179
Description: as §1, §2

[17] = test system: Staphylococcus epidermidis 291; assay: as above; format: cell-based; details: QRS, Staphylococcus epidermidis 291
Description: as §1, §2

[18] = test system: Staphylococcus aureus 293; assay: as above; format: cell-based; details: QRS, Staphylococcus aureus 293
Description: as §1, §2

[19] = test system: Staphylococcus aureus 241; assay: as above; format: cell-based; details: QRS, Staphylococcus aureus 241
Description: as §1, §2

[20] = test system: Staphylococcus epidermidis 178; assay: as above; format: cell-based; details: QRS, Staphylococcus epidermidis 178
Description: as §1, §2

[21] = test system: Staphylococcus aureus 695E; assay: Measurement of Minimum Inhibitory Concentration (MIC), MRSA; format: cell-based; details: Staphylococcus aureus 695E
Description: as §1, §2

[22] = test system: Staphylococcus aureus 692E; assay: as above; format: cell-based; details: Staphylococcus aureus 692E
Description: as §1, §2

[23] = test system: Staphylococcus aureus 256E; assay: as above; format: cell-based; details: Staphylococcus aureus 256E
Description: as §1, §2

[24] = test system: Staphylococcus aureus 694E; assay: as above; format: cell-based; details: Staphylococcus aureus 694E
Description: as §1, §2

[25] = test system: Staphylococcus aureus 697E; assay: as above; format: cell-based; details: Staphylococcus aureus 697E
Description: as §1, §2

[26] = test system: Staphylococcus aureus 208E; assay: as above; format: cell-based; details: Staphylococcus aureus 208E
Description: as §1, §2

[27] = test system: Staphylococcus aureus 690E; assay: as above; format: cell-based; details: Staphylococcus aureus 690E
Description: as §1, §2

[28] = test system: Staphylococcus aureus 88E; assay: as above; format: cell-based; details: Staphylococcus aureus 88E
Description: as §1, §2

[29] = test system: Staphylococcus aureus 693E; assay: as above; format: cell-based; details: Staphylococcus aureus 693E
Description: as §1, §2

[30] = test system: Staphylococcus aureus 121E; assay: as above; format: cell-based; details: Staphylococcus aureus 121E
Description: as §1, §2

[31] = target: T1, Dihydropeptidase-1 (DHP-1) (Sus scrofa, UniProt P22412)
T1 sequence (P22412 17-384): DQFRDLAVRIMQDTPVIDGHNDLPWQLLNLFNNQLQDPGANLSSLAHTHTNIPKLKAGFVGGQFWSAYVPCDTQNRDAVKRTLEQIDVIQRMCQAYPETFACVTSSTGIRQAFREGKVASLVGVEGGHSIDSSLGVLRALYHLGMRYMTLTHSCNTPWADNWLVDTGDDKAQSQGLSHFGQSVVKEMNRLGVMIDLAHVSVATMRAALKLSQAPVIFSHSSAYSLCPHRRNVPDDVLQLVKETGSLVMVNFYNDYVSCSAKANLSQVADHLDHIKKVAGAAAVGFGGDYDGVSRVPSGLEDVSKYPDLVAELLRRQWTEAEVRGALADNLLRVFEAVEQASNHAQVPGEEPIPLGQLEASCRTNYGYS

SMILES	MIC [1] [µg/mL]	MIC [2] [µg/mL]	MIC [3] [µg/mL]	MIC [4] [µg/mL]	MIC [5] [µg/mL]	MIC [6] [µg/mL]	MIC [7] [µg/mL]	MIC [8] [µg/mL]	MIC [9] [µg/mL]	MIC [10] [µg/mL]	MIC [11] [µg/mL]	MIC [12] [µg/mL]	MIC [13] [µg/mL]	MIC [14] [µg/mL]	MIC [15] [µg/mL]	MIC [16] [µg/mL]	MIC [17] [µg/mL]	MIC [18] [µg/mL]	MIC [19] [µg/mL]	MIC [20] [µg/mL]	further results
COc1ccc(CN2CC(SC3=C(C(=O)[O-])N4C(=O)[C@H]([C@@H](C)O)[C@H]4[C@H]3C)C2)cc1OC.[K+] [Exam. 17, Potassium(1R,5S,6S)-2-[1-(3,4-dimethoxybenzyl)-azetidine-3-yl-thio]-6-[(1R)-1-hydroxylethyl]-1-methylcarbapen-2-em-3-carboxylate]	0.002	0.391	0.391	0.098	0.098	0.013	0.098	0.781	0.002	1.563	0.391	0.049	0.391	0.781	0.025	0.098	1.563	0.391	0.195	0.781	MIC [21]: 0.098 µg/mL; MIC [22]: 0.195 µg/mL; MIC [23]: 0.049 µg/mL; MIC [24]: 0.098 µg/mL; MIC [25]: 0.098 µg/mL; MIC [26]: 0.049 µg/mL; MIC [27]: 0.781 µg/mL; MIC [28]: 0.195 µg/mL; MIC [29]: 0.391 µg/mL; MIC [30]: 0.098 µg/mL; T1/2 (time when the concentration of the medicament become the half) [31]: 27.45
C[C@@H](O)[C@H]1C(=O)N2C(C(=O)[O-])=C(SC3CN(Cc4ccc(F)cc4)C3)[C@H](C)[C@H]12.[K+] [Exam. 19, Potassium(1R,5S,6S)-2-[1-(4-fluorobenzyl)-azetidine-3-yl-thio]-6-[(1R)-1-hydroxylethyl]-1-methylcarbapen-2-em-3-carboxylate]	0.002	0.049	0.049	0.025	0.049	0.013	0.049	0.098	0.002	1.563	0.049	0.025	0.098	0.098	0.025	0.049	0.391	0.195	0.049	0.195	MIC [21]: 0.195 µg/mL; MIC [22]: 0.025 µg/mL; MIC [23]: 0.025 µg/mL; MIC [24]: 3.125 µg/mL; MIC [25]: 0.049 µg/mL; MIC [26]: 0.025 µg/mL; MIC [27]: 0.391 µg/mL; MIC [28]: 0.049 µg/mL; MIC [29]: 3.125 µg/mL; MIC [30]: 0.049 µg/mL; T1/2 (time when the concentration of the medicament become the half) [31]: 28.16
C[C@@H](O)[C@H]1C(=O)N2C(C(=O)[O-])=C(SC3CN([C@@H](C)c4ccccc4)C3)[C@H](C)[C@H]12.[K+] [Exam. 22, Potassium(1R,5S,6S)-2-{1-[(1S)-1-phenylethyl]-azetidine-3-yl-thio}-6-[(R)-1-hydroxylethyl]-1-methylcarbapen-2-em-3-carboxylate]	0.002	0.098	0.391	0.098	0.098	0.013	0.049	0.391	0.002	1.563	0.195	0.025	0.391	0.391	0.025	0.049	0.391	0.195	0.049	0.195	MIC [21]: 0.098 µg/mL; MIC [22]: 0.025 µg/mL; MIC [23]: 0.025 µg/mL; MIC [24]: 0.049 µg/mL; MIC [25]: 0.025 µg/mL; MIC [26]: 0.025 µg/mL; MIC [27]: 0.195 µg/mL; MIC [28]: 0.025 µg/mL; MIC [29]: 3.125 µg/mL; MIC [30]: 0.049 µg/mL; T1/2 (time when the concentration of the medicament become the half) [31]: 65.99; stability against hydrolysis by DHP-1 (in words) [31]: very stable
